From ChEMBL document CHEMBL6087420, “Synthesis and pharmacodynamic evaluation of 2-aminoindole derivatives against influenza A virus in vitro/vivo” (Eur J Med Chem, 2025)
Active and inactive are the calls of the source. The rule behind the calls is not given here.

Assays:
Influenza A virus [1] = test: Inhibition of neuraminidase in Influenza A virus
Influenza A virus [2] = test: In vivo antiviral activity against influenza A virus infected in BALB/c mouse assessed as reduction in NLRP-3 mRNA level in lung at 25 to 100 mg/kg measured after 6 dpi; assay type: functional, organism-based; settings: dose 25-100 mg/kg
Influenza A virus [3] = test: Inhibition of influenza A virus infection induced apoptosis in MDCK cells infected with influenza virus assessed as early apoptotic cells at 100 uM incubated for 36 hrs by AnnexinV-FITC/PI staining based flow cytometry (reference value: 18.2%); assay type: functional; design: scale not given: the % may be the effect or the level left
[4] = Selectivity index, ratio of CC50 for dog MDCK cells to EC50 for antiviral activity against Influenza A virus […] H3N2 (A/California/2014) infected in MDCK cells; assay type: toxicity, cell-based; settings: read-out: Selectivity Index
Influenza A virus [5] = test: Inhibition of influenza A virus infection induced apoptosis in MDCK cells assessed as necrotic cells at 100 uM incubated for 36 hrs by AnnexinV-FITC/PI staining based flow cytometry (reference value: 0.74%); assay type: functional; design: scale not given: the % may be the effect or the level left
Influenza A virus [6] = test: Antiviral activity against influenza A virus infected in human A549 cells assessed as inhibition of TNFalpha expression by qRT-PCR analysis; assay type: functional, organism-based
Influenza A virus [7] = test: Inhibition of influenza A virus infection induced apoptosis in MDCK cells infected with influenza virus assessed as late apoptotic cells at 25 uM incubated for 36 hrs by AnnexinV-FITC/PI staining based flow cytometry (reference value: 13.2%); assay type: functional; design: scale not given: the % may be the effect or the level left
Influenza A virus [8] = test: Inhibition of influenza A virus infection induced apoptosis in MDCK cells infected with influenza virus assessed as necrotic cells at 25 uM incubated for 36 hrs by AnnexinV-FITC/PI staining based flow cytometry (reference value: 1.79%); assay type: functional; design: scale not given: the % may be the effect or the level left
Influenza A virus [9] = test: Antiviral activity against influenza A virus infected in human A549 cells assessed as inhibition of RIG-1 expression by qRT-PCR analysis; assay type: functional, organism-based
Influenza A virus [10] = test: In vivo antiviral activity against influenza A virus infected in BALB/c mouse assessed as reduction in lung lesions at 25 to 100 mg/kg; assay type: functional, organism-based; settings: dose 25-100 mg/kg
[11] = Toxicity in healthy BALB/c mouse assessed as pathological change in liver at 25 to 100 mg/kg administered through gavage for 6 days; assay type: organism-based; settings: in vivo, po, 144 h, dose 25-100 mg/kg, time 6 day
Influenza A virus [12] = test: Antiviral activity against influenza A virus H1NI (A/Weiss/43) infected in human A549 cells assessed as reduction in viral titers in supernatants at 0.25 to 100 uM; assay type: functional, organism-based; settings: dose 0.25-100 µM
Influenza A virus [13] = test: Anti-influenza activity against influenza A virus H1NI (A/Weiss/43) infected in dog MDCK cells assessed as virus inhibition rate incubated for 72 hrs by MTT assay; assay type: functional, organism-based
Influenza A virus [14] = test: Anti-influenza activity against influenza A virus H3N2 (A/California/2014) infected in dog MDCK cells incubated for 72 hrs by MTT assay; assay type: functional, organism-based
Influenza A virus [15] = test: Inhibition of influenza A virus infection induced apoptosis in MDCK cells assessed as late apoptotic cells at 100 uM incubated for 36 hrs by AnnexinV-FITC/PI staining based flow cytometry (reference value: 0.70%); assay type: functional; design: scale not given: the % may be the effect or the level left
Influenza A virus [16] = test: In vivo antiviral activity against influenza A virus infected in BALB/c mouse assessed as reduction in TLR-3 mRNA level in lung at 25 to 100 mg/kg measured after 6 dpi; assay type: functional, organism-based; settings: dose 25-100 mg/kg
Influenza A virus [17] = test: Antiviral activity against influenza A virus infected in human A549 cells assessed as inhibition of RIG-1 protein expression at 25 to 100 uM by Western blot analysis; assay type: functional, organism-based; settings: dose 25-100 µM
Influenza A virus [18] = test: Inhibition of influenza A virus infection induced apoptosis in MDCK cells assessed as viable cells at 100 uM incubated for 36 hrs by AnnexinV-FITC/PI staining based flow cytometry (reference value: 97.6%); assay type: functional
Influenza A virus [19] = test: Antiviral activity against influenza A virus infected in human A549 cells assessed as inhibition of TLR3 expression by qRT-PCR analysis; assay type: functional, organism-based
Influenza A virus [20] = test: Antiviral activity against influenza A virus H1NI (A/Weiss/43) virus infected in dog MDCK cells assessed as viral inhibition treated after 4 hrs of viral infection measured at 72 hrs incubation by MTT assay; assay type: functional
Influenza A virus [21] = test: In vivo antiviral activity against influenza A virus infected in BALB/c mouse assessed as reduction in RIG-I mRNA level in lung at 25 to 100 mg/kg measured after 6 dpi; assay type: functional, organism-based; settings: dose 25-100 mg/kg
Influenza A virus [22] = test: In vivo antiviral activity against influenza A virus infected in BALB/c mouse assessed as reduction in IL-6 mRNA level in lung at 25 to 100 mg/kg measured after 6 dpi; assay type: functional, organism-based; settings: dose 25-100 mg/kg
Influenza A virus [23] = test: Antiviral activity against influenza A virus infected in human A549 cells assessed as inhibition of IL-13 expression by qRT-PCR analysis; assay type: functional, organism-based
Influenza A virus [24] = test: Antiviral activity against influenza virus infected in A549 cells assessed as inhibition in inflammatory cell invasion; assay type: functional, organism-based
Influenza A virus [25] = test: Antiviral activity against influenza A virus infected in human A549 cells assessed as inhibition of IRF3 expression by qRT-PCR analysis; assay type: functional, organism-based
Influenza A virus [26] = test: Inhibition of influenza A virus infection induced apoptosis in MDCK cells infected with influenza virus assessed as viable cells at 100 uM incubated for 36 hrs by AnnexinV-FITC/PI staining based flow cytometry (reference value: 66.9%); assay type: functional
Influenza A virus [27] = test: Antiviral activity against influenza A virus infected in A549 cells assessed as decrease in IAV-NP mRNA level measured after 1 to 3 days of viral infection; assay type: functional, organism-based; settings: time 1-3 day
[28] = Cytotoxicity against human A549 cells assessed as toxicity after 72 hrs of incubation by MTT assay; assay type: cell-based
Influenza A virus [29] = test: Anti-influenza activity against influenza A virus H1NI (A/Virginia/ATCC2/2009) infected in dog MDCK cells incubated for 72 hrs by MTT assay; assay type: functional, organism-based; settings: Influenza A virus, H1NI (A/Virginia/ATCC2/2009), MDCK, 72 h
Influenza A virus [30] = test: In vivo antiviral activity against influenza A virus infected in BALB/c mouse assessed as reduction in lung index at 25 to 100 mg/kg; assay type: functional, organism-based; settings: dose 25-100 mg/kg
Influenza A virus [31] = test: Inhibition of influenza A virus infection induced apoptosis in MDCK cells assessed as early apoptotic cells at 100 uM incubated for 36 hrs by AnnexinV-FITC/PI staining based flow cytometry (reference value: 0.96%); assay type: functional; design: scale not given: the % may be the effect or the level left
Influenza A virus [32] = test: In vivo antiviral activity against influenza A virus infected in BALB/c mouse assessed as reduction in OAS1 mRNA level in lung at 25 to 100 mg/kg measured after 6 dpi; assay type: functional, organism-based; settings: dose 25-100 mg/kg
[33] = Toxicity in healthy BALB/c mouse assessed as pathological change in spleen at 25 to 100 mg/kg administered through gavage for 6 days; assay type: organism-based; settings: in vivo, po, 144 h, dose 25-100 mg/kg, time 6 day
Influenza A virus [34] = test: Inhibition of influenza A virus infection induced apoptosis in MDCK cells infected with influenza virus assessed as viable cells at 50 uM incubated for 36 hrs by AnnexinV-FITC/PI staining based flow cytometry (reference value: 66.9%); assay type: functional
Influenza A virus [35] = test: Antiviral activity against influenza A virus H1NI (A/Weiss/43) infected in human A549 cells assessed as reduction in IAV-NP mRNA by qRT-PCR assay; assay type: functional, organism-based
Influenza A virus [36] = test: Antiviral activity against influenza A virus infected in A549 cells assessed as decrease in IAV-M2 mRNA level measured after 1 to 3 days of viral infection; assay type: functional, organism-based; settings: time 1-3 day

For `COc1ccc2c(c1)c(-c1ccccc1)c(NS(C)(=O)=O)n2S(=O)(=O)c1ccc(C)cc1`, the inhibition (Influenza A virus [1]) was “inactive”, the Activity (Influenza A virus [2]) was “Active” and the Activity (Influenza A virus [3]) was 3.6%. The selectivity ratio [4] was 36.5, the Activity (Influenza A virus [5]) was 1.78% and the Activity (Influenza A virus [6]) was “Active”. For the same compound, the Activity (Influenza A virus [7]) was 9.29%, the Activity (Influenza A virus [8]) was 1.23% and the Activity (Influenza A virus [9]) was “Active”. The Activity (Influenza A virus [10]) was “Active; Compound Alleviate Red Liver-Like Degeneration Stage, With Edema And Expansion, And Dark Red Lesions And Lung Consolidation - Only Mild Edema Observed”, the Activity [11] was “Non-toxic” and the Activity (Influenza A virus [12]) was “Active”. It also gave an EC50 (Influenza A virus [13]) of 8.37 µM, an EC50 (Influenza A virus [14]) of 18.3 µM and an Activity (Influenza A virus [15]) of 0.83%. For the same compound, the Activity (Influenza A virus [16]) was “Active”, the Activity (Influenza A virus [17]) was “Active” and the Activity (Influenza A virus [18]) was 96.7%. For the same compound, the Activity (Influenza A virus [19]) was “Active”, the “inhibition (INH)” value (Influenza A virus [20]) was 85.3% and the Activity (Influenza A virus [21]) was “Active”. For the same compound, the Activity (Influenza A virus [22]) was “Active”, the Activity (Influenza A virus [23]) was “Active” and the Activity (Influenza A virus [24]) was “Active”. The Activity (Influenza A virus [25]) was “Active”, the Activity (Influenza A virus [26]) was 92.8% and the Activity (Influenza A virus [27]) was “Active”. For the same compound, the CC50 at 72 h [28] was 632 µM, the EC50 (Influenza A virus [29]) was 12.9 µM and the Activity (Influenza A virus [30]) was “Active”. The Activity (Influenza A virus [31]) was 0.89%, the Activity (Influenza A virus [32]) was “Active” and the Activity [33] was “Non-toxic”. For the same compound, the Activity (Influenza A virus [34]) was 85.5%, the Activity (Influenza A virus [35]) was “Active” and the Activity (Influenza A virus [36]) was “Active”.
